Results taken from a melting point compilation (Tetko et al.; mined from patent text by program, amines drawn as free bases though some values may be those of a salt).

Compound	melting point
C=CCOCC(O)CN1CCN(c2nc(-c3ccccc3)nc3ccccc23)CC1 (centres undefined)	85 to 87 °C
CC(C)[C@@H]1CC[C@@H](C)C[C@H]1OCC(=O)N(C)CCO	65 to 66 °C
O=C1COc2cc(SCc3ccc(O)cc3)ccc2N1	207 to 209 °C
CC1(C)CC(=O)C2C3CCCOC3C2(C)C1 (centres undefined)	111 to 112 °C
Cc1ccc(=O)n(-c2cc(F)c(C#N)cc2F)n1	159 °C
Cc1cc(-c2cc(F)c(F)cc2-c2ccc(S(C)(=O)=O)cc2)ccc1Cl	152 °C
COCc1c(OC)cc(Cc2cnc(N)nc2N)cc1OC	221 to 223 °C
O=C1c2cc(Cl)ccc2-c2ccccc2CN1CCBr	94 to 97 °C
CCOc1cc2cc3c(c(-c4ccncc4)c2cc1OCC)C(=O)NC3=O	210 to 213 °C
CCN(CC)CCNc1ccc(CN(C)S(=O)(=O)CC)c2sc3ccccc3c(=O)c12	159 to 161 °C
COc1cc2c(cc1OC)C(=O)C(CN1CCC(O)(c3ccccc3)CC1)CC2 (centres undefined)	175 to 177 °C
Cc1ccc(S(=O)(=O)OCCc2c(F)ccc(F)c2F)cc1	73 to 74 °C
CCCN1NC(c2ccc(OC)cc2)C2=C1C(=Cc1ccc(OC)cc1)CSC2 (centres undefined)	132 to 134 °C
O=C(Nc1ccccc1Oc1cc(Cl)cc(Cl)c1)C1CCNCC1	138 to 139 °C
Clc1ccc2c(C3CCNCC3)n[nH]c2c1	174 to 176 °C
COc1cccc(C(=O)c2ccc(=O)n(Cc3ccc(Cl)cc3)c2)c1	104 °C
O=C(NCCO)c1cccc(-c2cccc3nn(Cc4ccc(F)c(F)c4)cc23)c1	116 to 117 °C
COC(=O)C[C@H](NC(=O)OCc1ccccc1)C(=O)O	55 to 60 °C
CCOC(=O)c1[nH]c(COC)nc1C(C)(C)O	112 to 113 °C
COc1nc2ccccc2nc1NC(=S)N1CCN(c2cc(C)cc(C)c2)CC1	193 to 195 °C
COc1cc(Cc2cnc(N3C(=O)c4ccccc4C3=O)nc2N)cc(OC)c1OC	221 °C
O=C(O)c1ccc2c(c1)Sc1ccccc1CC2	196 to 198 °C
CCn1c(=O)c2c(nc(/C=C/c3cc4c(c(OC(C)=O)c3)OCO4)n2C)n(CC)c1=O	> 270 °C
N=C(N)c1ccc2cc(OC(=O)CCCCCN)ccc2c1	122 to 123 °C
O=C(c1ccc2ccccc2n1)N1CCN=C1Nc1c(Cl)cccc1Cl	194 to 196 °C
CS(=O)(=O)OCCCCCCc1ccc(OCc2coc(/C=C/c3ccccc3)n2)cc1	88 to 89 °C

Compound	melting point
[N-]=[N+]=NCC(=O)c1cn2c3c(cccc13)CCC2	92 to 93 °C
O=S(=O)(/C=C/c1ccccc1)c1ncc(Cl)cn1	150 °C
O=C(N1CC1)C(F)(F)C(O)(Cn1cncn1)c1ccc(F)cc1F (centres undefined)	87.5 to 88 °C
CC(=O)NC1CCS(=O)(=O)c2sc(S(N)(=O)=O)cc21 (centres undefined)	263 to 265 °C
N#Cc1cc(Br)cc(-c2ccsc2)c1	62 to 63 °C
NS(=O)(=O)c1ncccc1SCCCF	85 to 86 °C
NC(=O)c1ccc(Cn2ccc(OCc3ccc(F)cc3F)c(Br)c2=O)cc1	235 to 238 °C
CCC(=O)c1cccc(C(N)=O)c1	121 to 122 °C
CCCCc1nc(C(F)(F)F)c(C(=O)OCC)n1Cc1cccc2c1ccn2-c1ccccc1-c1nn[nH]n1	93 to 95 °C
C=C(CC1(CC(=C)c2ccc(C(=O)Nc3ccccc3N)cc2)C(=O)N(C)C(=O)N(C)C1=O)c1ccc(C(=O)Nc2ccccc2N)cc1	161 to 163 °C
O=[N+]([O-])c1ccc(CO)c(Sc2ccccc2O)c1	131 to 133 °C
Cc1ccc(C(=O)NC#N)cc1	140 to 142 °C
CN(C)c1ccc(C=CC(=O)CC(=O)C=Cc2ccc(N(C)C)cc2)cc1	207 to 208 °C
COCCOCCn1cc(C(=O)NCc2ccc(Cl)cc2)c(=O)c2cc(CN(C)[C@H](C)[C@@H](O)c3ccccc3)ccc21	106 to 109 °C
O=S(=O)(Nc1ncnc(OCCO)c1-c1cccc(Cl)c1)c1ccc(Cl)cc1	178 to 180 °C
Cc1oc(C(C)(C)C)nc1CCl	41 to 44 °C
CCOC(=O)c1nc(C)c(SC)c(O)n1	139 °C
NC(=O)c1ncn(C2OC(CO)C(O)C2O)c1C(N)=O (centres undefined)	224 to 226 °C
CN1Cc2c(F)ncn2-c2ccccc2C1=O	171 to 172 °C
NS(=O)(=O)c1ccsc1	187 to 190 °C
COc1ccc(C(=O)CCC(=O)O)cc1CO	217 to 218 °C
CCOC(=O)C(=O)Cc1ncc([N+](=O)[O-])n1C	141 °C
O=[N+]([O-])c1ccc(Oc2ccc(-n3cncn3)cc2)cc1	131 to 132 °C
COc1cc([N+](=O)[O-])ccc1C(=O)N1CCCCC1	104 °C
CCOC(=O)c1cc(CC)sc1Nc1ccc(Cl)cc1N	119 to 121 °C
CCCc1nc(NC)n2ncc(C(=O)c3ccccc3Cl)c2n1	116 to 118 °C

Compound	melting point
CC(C)(C)OC(=O)C1CC(Cc2ccccc2)C(=O)N1C(=O)OC(C)(C)C (centres undefined)	125 °C
COCCNS(=O)(=O)CC1CC(C)(C)Oc2ccc(OCCO)cc21 (centres undefined)	61 to 63 °C
CCOC(=O)c1cc2cc(NC(C)=O)ccc2[nH]1	202 to 203 °C
CC(C)N1CCN(c2ccc(-c3[nH]nc4c3C(=O)c3c(NC(=O)NN5CCOCC5)cccc3-4)cc2)CC1	253 °C
Cc1[nH]n(C)c2nc(-c3ccncc3)nc(=O)c1-2	> 301 °C
CC(=O)Nc1nc(-c2ccc(S(=O)(=O)CCO)cc2)cs1	258 to 260 °C
CCOCC1COc2cc3c(Cl)c(C(=O)OCC)cnc3cc2O1 (centres undefined)	106 to 108 °C
CCC1CN(Cc2ccccc2)C(=O)C(=C2SC=CS2)C1=O (centres undefined)	140 to 141 °C
O=C(O)C1(C(=O)O)CC2CCC2C1 (centres undefined)	161 to 170 °C
COc1ccc(S(=O)(=O)Nc2ccc(Cl)nc2Nc2ccccc2)cc1	206 to 208 °C
CCCCC1(N(C)C)CCC(c2[nH]c3ccccc3c2C)(c2[nH]c3ccccc3c2CCNC(=O)Nc2ccccc2)CC1 (centres undefined)	115 to 120 °C
CCN(C(=O)OC(C)(C)C)C1CC=C(c2c[nH]c3ccc(NC(=N)c4cccs4)cc23)CC1 (centres undefined)	124 to 126 °C
CCN1CCN(Cc2cc(-c3ccc4c(Nc5cc(OC)c(Cl)cc5Cl)c(C#N)cnc4c3)cs2)CC1	118 to 120 °C
CCCC1=NN(c2ccc(S(=O)(=O)O)cc2)C(=O)C1=CNc1ccccc1CC	205 °C
COc1ccc2c(c1)Cc1cc(CC(=O)O)ccc1-2	200 to 202 °C
CC(=O)Nc1ccc(F)cc1SCC#N	97 to 100 °C
CCN(CCOc1ccc(NC(=O)c2cccc3c(=O)c4ccccc4[nH]c23)cc1)Cc1ccccc1	157 °C
OCCOc1ccc(Oc2ccc(F)cc2)cc1	74 to 76 °C
CC(C)(C)OC(=O)Nc1ccncc1N	124 to 126 °C
CCCCCCCOc1c(OC)cc(N)c2nccc(C)c12	68 to 70 °C
CCOC(=O)Cc1ccc(C(=O)c2ccc(C#N)cc2)n1C	117 to 120 °C
Cc1c(F)c(N2CCNCC2)c(F)c2c1c(=O)c(C(=O)O)cn2C1CC1	205 to 206 °C
COC1(C)COC(C)(OC)CO1 (centres undefined)	126 to 128 °C
CCC(CCN=C(O)C(Br)=C(Br)C(=O)O)c1ccccc1 (centres undefined)	71 to 73 °C
COc1cccc2c1CCC(CN1CCC(O)(c3ccccc3)CC1)C2=O (centres undefined)	163 to 165 °C
CCc1cc2c(s1)N(C(=O)N(C)C)CCN=C2c1ccccc1	237 to 238 °C

Compound	melting point
O=C(Nc1ccc2oc3c(c2c1)CCCC3)c1ccccc1	178 to 180 °C
Cc1oc(-c2ccccc2)nc1COc1ccc(CCC2OC(=O)NC2=O)cc1 (centres undefined)	158 to 159 °C
CCn1ncc2c(NCc3ccccc3)c3ccc(O)cc3nc21	252 to 254 °C
COc1ccc(S(N)(=O)=O)cc1C(O)CCl (centres undefined)	112 °C
CCc1nc2c(N)nc3ccccc3c2n1CCCS(=O)(=O)N(C)C	209 to 211 °C
OC(c1ccccc1)C1CCCN1 (centres undefined)	110 °C
O=c1[nH]c2c(n(O)c1=O)C1=C(CCC(n3ccc(CN4CCN(Cc5ccccc5)CC4)c3)=C1)CC2	> 200 °C
CN(C)C(=O)C1=NN(c2ccccc2)C(C(N)=O)=NN1c1ccccc1	243 to 244 °C
CN(C)C(=S)Oc1ccc(C(=O)c2ccccc2C#N)cc1	138 °C
CCOC(=O)CC(c1ccccc1)N(N)C(=O)c1cc(C(=O)OCc2ccccc2)ccc1OCCOC (racemic)	139 to 140 °C
Nc1cc(F)c(F)cc1C(=O)c1ccccc1	100 to 101 °C
CS(=O)(=O)c1ccc(-n2nc(C(F)(F)F)cc2-c2ccc(-c3cocn3)cc2)cc1F	164 to 166 °C
COc1ccc(C(=O)NCCCCCCCNC(=O)c2ccc(OC)c(Cl)c2)cc1Cl	132 to 133 °C
CCCCN(CCCC)CCCNS(=O)(=O)c1ccc2c(c1)C(=O)c1cc(S(=O)(=O)NCCCN(CCCC)CCCC)ccc1C2=O	93 to 95 °C
CCOC(=O)C1=Cc2sccc2S(=O)(=O)N1C	87 to 89 °C
COC(=O)c1ccc(-c2ccc(I)c(O)c2)cc1	192 °C
O=c1[nH]c2ncc(-c3ccc(-c4n[nH]c(CO)n4)cc3)nc2n1CC1CCOCC1	258 to 260 °C
OCCCc1ccccc1N(Cc1ccccc1)Cc1ccccc1	71.5 to 73 °C
CCCc1nc2c(N)nc3cc(Oc4ccccc4[N+](=O)[O-])ccc3c2n1CC(C)C	207 to 208 °C
O=c1c2c(Cc3ccccc3OC(F)(F)F)n[nH]c2c2cccnc2n1-c1cccc(OC(F)(F)F)c1	233 to 236 °C
c1ccc2c(c1)Cc1c(-c3ccsc3)n[nH]c1-2	219 to 220 °C
Fc1cc(Cn2cncn2)cc2c1Cc1c(-c3ccsc3)n[nH]c1-2	236 to 239 °C
COCCNC(=O)c1cccc(-c2cccc3cc(Cc4ccc(Cl)s4)sc23)c1	104 to 105 °C
COc1cc2ncc(NC3CCCCC3)nc2cc1OC	149 to 151 °C
COc1cc(Br)c2c(c1)CCCN2	125 to 126 °C
O=C1c2ccccc2N2CCCN3CCN1C32 (centres undefined)	144 to 146 °C
